Results as given in PubChem BioAssay AID1963837 (Molecular Pharmacology Branch, DTP, NCI, 2024).

Tested on: 843126-344-R-J1-PDC complex spheroid viability
Assay: Anticancer human tumor 843126-344-R-J1-PDC patient-derived melanoma cell line growth inhibition [POLQ]
Conditions: for IC50: curve of first compound; for viability, T/C: stronger effect = lower value
Protocol: Multicellular complex tumor spheroid response to Polymerase (POL) inhibitors (novobiocin, ART-558, RP6685) in combination with a variety of drugs and investigational agents in selected tumor cell lines
The POL inhibitors (novobiocin, ART-558, and RP6685) were evaluated both individually and in combination with standard of care and investigational anticancer small molecules within a complex spheroid model of solid tumors. . Complex spheroids include a stromal component modeled by human endothelial cells (HUVEC) and fibroblasts modeled by human mesenchymal stem cells (MSCs). The concentration ranges selected for each drug and investigational agent were based upon clinically achievable concentrations if the clinical Cmax of the agent was known.
Compounds. The drugs and investigational agents: novobiocin (NSC847541), ART-558 (NSC835418), RP-6685 (NSC848927), peposertib (NSC802822), ceralasertib (NSC780249), elimusertib (NSC800525), camonsertib (NSC841442), AZD-1390 (NSC803789), olaparib (NSC753686), talazoparib (NSC767125), rucaparib (NSC756644), sotorasib (NSC818433), MRTX-1133 (NSC836407), SN-38 (NSC673596), topotecan (NSC609699), epotoside (NSC141540), doxorubicin (NSC123127), gemcitabine (NSC613327), 5-fluorouracil (NSC19893), paclitaxel (NSC125973), vemurafenib (NSC761431), MSA-2 (NSC828583), SN-011 (NSC837082), adavosertib (NSC754352), prexasertib (NSC758257), carboplatin (NSC241240) and oxaliplatin (NSC266046), were obtained from the National Cancer Institute (NCI) Developmental Therapeutics Program Chemical Repository (21). The FDA-approved anticancer drug set is available from the Developmental Therapeutics Program at https://dtp.cancer.gov/organization/dscb/obtaining/. […] The stock solutions were prepared in dimethyl sulfoxide (DMSO, Sigma-Aldrich, St. Louis, MO, cat. D2650), except for the platinum compounds which were prepared in saline (Quality Biological, Gaithersburg, MD, cat. 114-055-101), at 800-fold the tested concentration and stored at -70 degrees C prior to their use. All drugs and investigational agents were tested over a range starting from a high concentration at or near the clinical Cmax and decreasing in half-log increments. If the clinical Cmax for an agent had not been determined, the highest concentration tested was 10 microM, except for SN-38, which was tested at a high concentration of 1 microM.
Cell Culture. All cells were maintained in an incubator at 37 degrees C and 5% CO2 with 95% humidity. The PDC lines were cultured according to standard operating procedures established by the NCI PDMR (https://pdmr.cancer.gov). Table 3 of the manuscript, lists the cell lines along with the number of the three cell types plated to form the mct-spheroids and media for tumor cell growth. After thawing, all PDC lines, except 997537-175-T-J1-PDC and 415267-285-R-J2-PDC, were cultured in Matrigel-coated flasks prepared with a working solution of 1X Ham's F-12 nutrient mix, without supplementation (Thermo Fisher Scientific, cat. 11765054), 100 U/mL penicillin-streptomycin (Thermo Fisher Scientific, cat. 15140122), and 2.5% Matrigel (Corning Inc., Corning, NY, cat. 354248) for the first three passages. The two PDC lines 997537-175-T-J1-PDC and 415267-285-R-J2-PDC were cultured on uncoated flasks. The 857933-349-R-J2-PDC line was cultured in 6C/Colon 1B media containing advanced DMEM/F-12 (Thermo Fisher Scientific, cat. 12634028), 10 mM HEPES (Thermo Fisher Scientific, cat. 15630080), 1X GlutaMAX supplement (Thermo Fisher Scientific, cat. 35050061), 0.1 mg/mL primocin (InvivoGen, San Diego, CA, cat. ant-pm-2), 10% defined fetal bovine serum, heat inactivated (HyClone Laboratories Inc., Logan, UT, cat. SH30070.03HI), 50% L-WRN conditioned media (ATCC, cat. CRL-3276), 1.25 mM N-Acetyl-L-cysteine (Sigma-Aldrich, cat. A9165), 10 mM nicotinamide (Sigma-Aldrich, cat. N0636), 1X B-27 supplement (Thermo Fisher Scientific, cat. 17504044), 1X N-2 supplement (Thermo Fisher Scientific, cat. […]

[1] = second compound 0.0316 µM, first compound 0.0316 µM
[2] = second compound 0.0316 µM, first compound 0.1 µM
[3] = second compound 0.1 µM, first compound 0.0316 µM
[4] = second compound 0.1 µM, first compound 0.1 µM
[5] = second compound 0.316 µM, first compound 0.0316 µM
[6] = second compound 0.316 µM, first compound 0.1 µM
[7] = second compound 1 µM, first compound 0.0316 µM
[8] = second compound 1 µM, first compound 0.1 µM
[9] = second compound 3.16 µM, first compound 0.0316 µM
[10] = second compound 3.16 µM, first compound 0.1 µM
[11] = second compound 10 µM, first compound 0.0316 µM
[12] = second compound 10 µM, first compound 0.1 µM
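For viability, T/C in this document: spheroids exposed to drugs for seven days before readout.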

## CC[C@@]1(O)C(=O)OCc2c1cc1n(c2=O)Cc2cc3c(CN(C)C)c(O)ccc3nc2-1 + COC1C(OC(N)=O)C(O)C(Oc2ccc3c(O)c(NC(=O)c4ccc(O)c(CC=C(C)C)c4)c(=O)oc3c2C)OC1(C)C
Second compound 0.0316 µM
  IC50: > 0.1 µM
Second compound 0.1 µM
  IC50: 0.096 µM
Second compound 0.316 µM
  IC50: > 0.1 µM
Second compound 1 µM
  IC50: 0.0769 µM
Second compound 3.16 µM
  IC50: > 0.1 µM
Second compound 10 µM
  IC50: > 0.1 µM
Second compound 0.0316 µM, first compound 0.000316 µM
  viability, T/C: 94.8%
Second compound 0.0316 µM, first compound 0.001 µM
  viability, T/C: 89.7%
Second compound 0.0316 µM, first compound 0.00316 µM
  viability, T/C: 104%
Second compound 0.0316 µM, first compound 0.01 µM
  viability, T/C: 110%
[1]
  viability, T/C: 57.3%
[2]
  viability, T/C: 52.5%
Second compound 0.1 µM, first compound 0.000316 µM
  viability, T/C: 95.7%
Second compound 0.1 µM, first compound 0.001 µM
  viability, T/C: 104%
Second compound 0.1 µM, first compound 0.00316 µM
  viability, T/C: 123%
Second compound 0.1 µM, first compound 0.01 µM
  viability, T/C: 91.4%
[3]
  viability, T/C: 78.2%
[4]
  viability, T/C: 48.7%
Second compound 0.316 µM, first compound 0.000316 µM
  viability, T/C: 114%
Second compound 0.316 µM, first compound 0.001 µM
  viability, T/C: 99.2%
Second compound 0.316 µM, first compound 0.00316 µM
  viability, T/C: 91.1%
Second compound 0.316 µM, first compound 0.01 µM
  viability, T/C: 70.9%
[5]
  viability, T/C: 91.3%
[6]
  viability, T/C: 46.6%
Second compound 1 µM, first compound 0.000316 µM
  viability, T/C: 84.5%
Second compound 1 µM, first compound 0.001 µM
  viability, T/C: 83.8%
Second compound 1 µM, first compound 0.00316 µM
  viability, T/C: 102%
Second compound 1 µM, first compound 0.01 µM
  viability, T/C: 82.4%
[7]
  viability, T/C: 61.5%
[8]
  viability, T/C: 46.6%
Second compound 3.16 µM, first compound 0.000316 µM
  viability, T/C: 92.3%
Second compound 3.16 µM, first compound 0.001 µM
  viability, T/C: 96.3%
Second compound 3.16 µM, first compound 0.00316 µM
  viability, T/C: 101%
Second compound 3.16 µM, first compound 0.01 µM
  viability, T/C: 91%
[9]
  viability, T/C: 63.2%
[10]
  viability, T/C: 54%
Second compound 10 µM, first compound 0.000316 µM
  viability, T/C: 95.5%
Second compound 10 µM, first compound 0.001 µM
  viability, T/C: 109%
Second compound 10 µM, first compound 0.00316 µM
  viability, T/C: 110%
Second compound 10 µM, first compound 0.01 µM
  viability, T/C: 119%
[11]
  viability, T/C: 74.1%
[12]
  viability, T/C: 54%

## COc1cc(C2c3cc4c(cc3C(OC3OC5COC(C)OC5C(O)C3O)C3COC(=O)C23)OCO4)cc(OC)c1O (centres undefined) + COC1C(OC(N)=O)C(O)C(Oc2ccc3c(O)c(NC(=O)c4ccc(O)c(CC=C(C)C)c4)c(=O)oc3c2C)OC1(C)C
Second compound 0.0316 µM
  IC50: > 10 µM
Second compound 0.1 µM
  IC50: > 10 µM
Second compound 0.316 µM
  IC50: > 10 µM
Second compound 1 µM
  IC50: 9.06 µM
Second compound 3.16 µM
  IC50: > 10 µM
Second compound 10 µM
  IC50: 7.76 µM
[1]
  viability, T/C: 86%
[2]
  viability, T/C: 89.4%
Second compound 0.0316 µM, first compound 0.316 µM
  viability, T/C: 95.3%
Second compound 0.0316 µM, first compound 1 µM
  viability, T/C: 79.8%
Second compound 0.0316 µM, first compound 3.16 µM
  viability, T/C: 57%
Second compound 0.0316 µM, first compound 10 µM
  viability, T/C: 50.8%
[3]
  viability, T/C: 102%
[4]
  viability, T/C: 91.3%
Second compound 0.1 µM, first compound 0.316 µM
  viability, T/C: 88.2%
Second compound 0.1 µM, first compound 1 µM
  viability, T/C: 86%
Second compound 0.1 µM, first compound 3.16 µM
  viability, T/C: 60%
Second compound 0.1 µM, first compound 10 µM
  viability, T/C: 54.5%
[5]
  viability, T/C: 98%
[6]
  viability, T/C: 89.3%
Second compound 0.316 µM, first compound 0.316 µM
  viability, T/C: 97.5%
Second compound 0.316 µM, first compound 1 µM
  viability, T/C: 83.6%
Second compound 0.316 µM, first compound 3.16 µM
  viability, T/C: 60.7%
Second compound 0.316 µM, first compound 10 µM
  viability, T/C: 52.1%
[7]
  viability, T/C: 81.8%
[8]
  viability, T/C: 82.6%
Second compound 1 µM, first compound 0.316 µM
  viability, T/C: 97%
Second compound 1 µM, first compound 1 µM
  viability, T/C: 82.1%
Second compound 1 µM, first compound 3.16 µM
  viability, T/C: 78.9%
Second compound 1 µM, first compound 10 µM
  viability, T/C: 47.3%
[9]
  viability, T/C: 85.8%
[10]
  viability, T/C: 93.6%
Second compound 3.16 µM, first compound 0.316 µM
  viability, T/C: 89.5%
Second compound 3.16 µM, first compound 1 µM
  viability, T/C: 91%
Second compound 3.16 µM, first compound 3.16 µM
  viability, T/C: 64.4%
Second compound 3.16 µM, first compound 10 µM
  viability, T/C: 57.8%
[11]
  viability, T/C: 114%
[12]
  viability, T/C: 96.3%
Second compound 10 µM, first compound 0.316 µM
  viability, T/C: 91.8%
Second compound 10 µM, first compound 1 µM
  viability, T/C: 85.1%
Second compound 10 µM, first compound 3.16 µM
  viability, T/C: 58.5%
Second compound 10 µM, first compound 10 µM
  viability, T/C: 47.2%
